{"source": "the supplement of paper PMC11208160", "data": [{"test": "recombinant barcode read abundance after kanamycin selection (control-corrected) (log10(CPM+1)); higher = more efficient recombination; sequences stand for … in AGTGCAGAGAAAATCGGCCAGTTTTCTCTGCCTGCAGTCCGCATGCCGT…AGATTTATGCAGCGGACTGCCTTTCTCCCAAAGTGATAAACCGGACAGTATCATGGACCGGTTTTCCCGGTAATCCGTATTTGCAAGGTTGGTTTCACT; site = the 11-nt target", "procedure,_shortened": "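In a pooled screen in E. coli, targets were paired with target-binding loops of the IS621 bridge RNA. Each oligo carried a promoter, a target, a barcode and the first 104 bridge RNA bases driven by J23119, and was Gibson-cloned into a vector holding the remaining 73 bp and a T7-inducible recombinase before co-electroporation with a donor plasmid. Duplicate platings went onto chloramphenicol/ampicillin LB agar as the control or onto chloramphenicol/ampicillin/kanamycin with 0.1 mM IPTG. Recombination efficiency is the averaged, control-corrected count per million of barcodes at recombinant junctions, given as log10(CPM+1).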", "values": [{"sequence": "TCGCACACTTGGGTTCTAACCTGTTGCTG (site TCGCACACTCA)", "recombinant barcode read abundance (log10)": 0.548}, {"sequence": "TCGCGGACTTGGGTTCTAACCTGTTGCCT (site TCACGGACTAG)", "recombinant barcode read abundance (log10)": 0.464}, {"sequence": "TCGCGGACTTGGGTTCTAACCTGTTGCCT (site TCCCGGACTAG)", "recombinant barcode read abundance (log10)": 0.243}, {"sequence": "TCGCGGACTTGGGTTCTAACCTGTTGCCT (site TCGCGGACTAG)", "recombinant barcode read abundance (log10)": 0.168}, {"sequence": "TCGCGGACTTGGGTTCTAACCTGTTGCCT (site TCTCGGACTAG)", "recombinant barcode read abundance (log10)": 0.0887}, {"sequence": "TCGGAGTCTTGGGTTCTAACCTGTTGCAT (site TCGGAGTCTAA)", "recombinant barcode read abundance (log10)": 0.5}, {"sequence": "TCGGAGTCTTGGGTTCTAACCTGTTGCAT (site TCGGAGTCTAC)", "recombinant barcode read abundance (log10)": 1.03}, {"sequence": "TCGGAGTCTTGGGTTCTAACCTGTTGCAT (site TCGGAGTCTAG)", "recombinant barcode read abundance (log10)": 1.4}, {"sequence": "TCGGAGTCTTGGGTTCTAACCTGTTGCAT (site TCGGAGTCTAT)", "recombinant barcode read abundance (log10)": 2.29}, {"sequence": "TCGGAGTCTTGGGTTCTAACCTGTTGCGC (site CTATGACCTCA)", "recombinant barcode read abundance (log10)": 0.0526}, {"sequence": "TCGGAGTCTTGGGTTCTAACCTGTTGCGC (site TCGGAGTCTGC)", "recombinant barcode read abundance (log10)": 1.37}, {"sequence": "TCGGAGTCTTGGGTTCTAACCTGTTGCTG (site TCGGAGTCTCA)", "recombinant barcode read abundance (log10)": 0.963}, {"sequence": "TCGGAGTCTTGGGTTCTAACCTGTTGCTG (site TCGGAGTCTCG)", "recombinant barcode read abundance (log10)": 0.446}, {"sequence": "TCGGATACTTGGGTTCTAACCTGTTGCTT (site TCGGATACTAA)", "recombinant barcode read abundance (log10)": 0.659}, {"sequence": "TCGGATACTTGGGTTCTAACCTGTTGCTT (site TCGGATACTAC)", "recombinant barcode read abundance (log10)": 0.249}, {"sequence": "TCGGATACTTGGGTTCTAACCTGTTGCTT (site TCGGATACTAG)", "recombinant barcode read abundance (log10)": 0.759}, {"sequence": "TCGGATACTTGGGTTCTAACCTGTTGCTT (site TCGGATACTAT)", "recombinant barcode read abundance (log10)": 0.323}, {"sequence": "TCGTCACCTTGGGTTCTAACCTGTTGCAT (site CTAGTGGCTCG)", "recombinant barcode read abundance (log10)": 0}, {"sequence": "TCGTCACCTTGGGTTCTAACCTGTTGCAT (site TCGTCACCTAT)", "recombinant barcode read abundance (log10)": 0.0694}, {"sequence": "TCGTCATCTTGGGTTCTAACCTGTTGCCT (site TCGTCATCTAG)", "recombinant barcode read abundance (log10)": 0.21}, {"sequence": "TCGTCATCTTGGGTTCTAACCTGTTGCCT (site TCGTCCTCTAG)", "recombinant barcode read abundance (log10)": 0.276}, {"sequence": "TCGTGCCCTTGGGTTCTAACCTGTTGCTG (site TCGTGCCCTAA)", "recombinant barcode read abundance (log10)": 0.0676}, {"sequence": "TCGTGCCCTTGGGTTCTAACCTGTTGCTG (site TCGTGCCCTCA)", "recombinant barcode read abundance (log10)": 0.156}, {"sequence": "TCGTTCCCTTGGGTTCTAACCTGTTGCTT (site TCGTTCCCTAA)", "recombinant barcode read abundance (log10)": 0.105}, {"sequence": "TCGTTCCCTTGGGTTCTAACCTGTTGCTT (site TCGTTGCCTAG)", "recombinant barcode read abundance (log10)": 0.0502}, {"sequence": "TCGTTGCCTTGGGTTCTAACCTGTTGCCT (site TCGTTCCCTAA)", "recombinant barcode read abundance (log10)": 0.695}, {"sequence": "TCGTTGCCTTGGGTTCTAACCTGTTGCCT (site TCGTTGCCTAG)", "recombinant barcode read abundance (log10)": 0.533}, {"sequence": "TCTAACCCTTGGGTTCTAACCTGTTGCGG (site TCAAACCCTCC)", "recombinant barcode read abundance (log10)": 0.332}, {"sequence": "TCTAACCCTTGGGTTCTAACCTGTTGCGG (site TCCAACCCTCC)", "recombinant barcode read abundance (log10)": 0.0105}, {"sequence": "TCTAACCCTTGGGTTCTAACCTGTTGCGG (site TCGAACCCTCC)", "recombinant barcode read abundance (log10)": 0.091}, {"sequence": "TCTAACCCTTGGGTTCTAACCTGTTGCGG (site TCTAACCCTCC)", "recombinant barcode read abundance (log10)": 1.09}, {"sequence": "TCTAAGTCTTGGGTTCTAACCTGTTGCCG (site TCTAAGTCTAG)", "recombinant barcode read abundance (log10)": 0.0709}, {"sequence": "TCTAAGTCTTGGGTTCTAACCTGTTGCCG (site TCTAAGTCTCG)", "recombinant barcode read abundance (log10)": 0.137}, {"sequence": "TCTAAGTCTTGGGTTCTAACCTGTTGCCG (site TCTAAGTCTGG)", "recombinant barcode read abundance (log10)": 0.0885}, {"sequence": "TCTAAGTCTTGGGTTCTAACCTGTTGCCG (site TCTAAGTCTTG)", "recombinant barcode read abundance (log10)": 0.483}, {"sequence": "TCTACTTCTTGGGTTCTAACCTGTTGCCT (site TCTACATCTAG)", "recombinant barcode read abundance (log10)": 0.0183}, {"sequence": "TCTACTTCTTGGGTTCTAACCTGTTGCCT (site TCTACCTCTAG)", "recombinant barcode read abundance (log10)": 0.123}, {"sequence": "TCTACTTCTTGGGTTCTAACCTGTTGCCT (site TCTACGTCTAG)", "recombinant barcode read abundance (log10)": 0.0937}, {"sequence": "TCTACTTCTTGGGTTCTAACCTGTTGCCT (site TCTACTTCTAG)", "recombinant barcode read abundance (log10)": 0.136}, {"sequence": "TCTAGACCTTGGGTTCTAACCTGTTGCCT (site TCTAGAACTAG)", "recombinant barcode read abundance (log10)": 0}, {"sequence": "TCTAGACCTTGGGTTCTAACCTGTTGCCT (site TCTAGACCTAG)", "recombinant barcode read abundance (log10)": 0.0778}, {"sequence": "TCTAGACCTTGGGTTCTAACCTGTTGCCT (site TCTAGAGCTAG)", "recombinant barcode read abundance (log10)": 0.139}, {"sequence": "TCTAGACCTTGGGTTCTAACCTGTTGCCT (site TCTAGATCTAG)", "recombinant barcode read abundance (log10)": 0.03}, {"sequence": "TCTAGAGCTTGGGTTCTAACCTGTTGCGG (site CCTCGAGCTCC)", "recombinant barcode read abundance (log10)": 0.176}, {"sequence": "TCTAGAGCTTGGGTTCTAACCTGTTGCGG (site TCTAGAGCTCC)", "recombinant barcode read abundance (log10)": 1.61}, {"sequence": "TCTAGTCCTTGGGTTCTAACCTGTTGCCT (site TCTAGACCTTG)", "recombinant barcode read abundance (log10)": 0.418}, {"sequence": "TCTAGTCCTTGGGTTCTAACCTGTTGCCT (site TCTAGTCCTAG)", "recombinant barcode read abundance (log10)": 0.036}, {"sequence": "TCTCAACCTTGGGTTCTAACCTGTTGCCT (site TCTAAACCTAG)", "recombinant barcode read abundance (log10)": 0.0445}, {"sequence": "TCTCAACCTTGGGTTCTAACCTGTTGCCT (site TCTCAACCTAG)", "recombinant barcode read abundance (log10)": 1.33}, {"sequence": "TCTCAGGCTTGGGTTCTAACCTGTTGCCG (site TCACAGGCTCG)", "recombinant barcode read abundance (log10)": 0.203}, {"sequence": "TCTCAGGCTTGGGTTCTAACCTGTTGCCG (site TCTCAGGCTCG)", "recombinant barcode read abundance (log10)": 0.0148}, {"sequence": "TCTCAGTCTTGGGTTCTAACCTGTTGCGG (site TCCCAGTCTCA)", "recombinant barcode read abundance (log10)": 0.0631}, {"sequence": "TCTCAGTCTTGGGTTCTAACCTGTTGCGG (site TCTCAGTCTCC)", "recombinant barcode read abundance (log10)": 1.14}, {"sequence": "TCTCCAGCTTGGGTTCTAACCTGTTGCCT (site TCGCAAGCTAG)", "recombinant barcode read abundance (log10)": 0.0305}, {"sequence": "TCTCCAGCTTGGGTTCTAACCTGTTGCCT (site TCTCCAGCTAG)", "recombinant barcode read abundance (log10)": 1.13}, {"sequence": "TCTCGAGCTTGGGTTCTAACCTGTTGCGA (site CTGGCGCCTAT)", "recombinant barcode read abundance (log10)": 0.839}, {"sequence": "TCTCGAGCTTGGGTTCTAACCTGTTGCGA (site TCTCGAGCTTC)", "recombinant barcode read abundance (log10)": 0.78}, {"sequence": "TCTCGGACTTGGGTTCTAACCTGTTGCCT (site TCACGGACTAG)", "recombinant barcode read abundance (log10)": 0.147}, {"sequence": "TCTCGGACTTGGGTTCTAACCTGTTGCCT (site TCCCGGACTAG)", "recombinant barcode read abundance (log10)": 0.0144}, {"sequence": "TCTCGGACTTGGGTTCTAACCTGTTGCCT (site TCGCGGACTAG)", "recombinant barcode read abundance (log10)": 0.0137}, {"sequence": "TCTCGGACTTGGGTTCTAACCTGTTGCCT (site TCTCGGACTAG)", "recombinant barcode read abundance (log10)": 0.249}, {"sequence": "TCTCTCGCTTGGGTTCTAACCTGTTGCCT (site CAGAATCCTCC)", "recombinant barcode read abundance (log10)": 0.108}, {"sequence": "TCTCTCGCTTGGGTTCTAACCTGTTGCCT (site TCTCTCGCTAG)", "recombinant barcode read abundance (log10)": 0.47}, {"sequence": "TCTGATCCTTGGGTTCTAACCTGTTGCCT (site TCTCACCCTAG)", "recombinant barcode read abundance (log10)": 0.0615}, {"sequence": "TCTGATCCTTGGGTTCTAACCTGTTGCCT (site TCTGATCCTAG)", "recombinant barcode read abundance (log10)": 0.7}, {"sequence": "TCTGGGCCTTGGGTTCTAACCTGTTGCTA (site TCTGGGCCTAA)", "recombinant barcode read abundance (log10)": 0.42}, {"sequence": "TCTGGGCCTTGGGTTCTAACCTGTTGCTA (site TCTGGGCCTTA)", "recombinant barcode read abundance (log10)": 0.364}, {"sequence": "TCTTAGACTTGGGTTCTAACCTGTTGCGA (site CAAACCTCTGT)", "recombinant barcode read abundance (log10)": 0.0411}, {"sequence": "TCTTAGACTTGGGTTCTAACCTGTTGCGA (site TCTTAGACTTC)", "recombinant barcode read abundance (log10)": 0.638}, {"sequence": "TCTTAGACTTGGGTTCTAACCTGTTGCGG (site ACTTAGACTCC)", "recombinant barcode read abundance (log10)": 0.172}, {"sequence": "TCTTAGACTTGGGTTCTAACCTGTTGCGG (site TCTTAGACTCC)", "recombinant barcode read abundance (log10)": 1.47}, {"sequence": "TCTTATTCTTGGGTTCTAACCTGTTGCGT (site TCTAATTCTAC)", "recombinant barcode read abundance (log10)": 0.0715}, {"sequence": "TCTTATTCTTGGGTTCTAACCTGTTGCGT (site TCTCATTCTAC)", "recombinant barcode read abundance (log10)": 0.0847}, {"sequence": "TCTTATTCTTGGGTTCTAACCTGTTGCGT (site TCTGATTCTAC)", "recombinant barcode read abundance (log10)": 0.0368}, {"sequence": "TCTTATTCTTGGGTTCTAACCTGTTGCGT (site TCTTATTCTAC)", "recombinant barcode read abundance (log10)": 0.258}, {"sequence": "TCTTGGACTTGGGTTCTAACCTGTTGCAC (site AGGGACCCTAG)", "recombinant barcode read abundance (log10)": 0.0242}, {"sequence": "TCTTGGACTTGGGTTCTAACCTGTTGCAC (site TCTTGGACTGT)", "recombinant barcode read abundance (log10)": 0.104}]}]}
